Test results from ChEMBL document CHEMBL5143566, “Discovery of Pyrazolo[1,5-a]pyrazin-4-ones as Potent and Brain Penetrant GluN2A-Selective Positive Allosteric Modulators Reducing AMPA Receptor Binding Activity” (Bioorg Med Chem, 2022).
Calls of active or inactive are those of the source. The rule behind the calls is not given here.

Columns and labels:
[1] = molecular target: T1, Glutamate NMDA receptor; GRIN1/GRIN2A (Homo sapiens, UniProt Q05586+Q12879); assay: Positive allosteric modulator activity at GluN1a/GluN2A (unknown origin) expressed in CHO cells in presence of glutamate by Ca2+ influx assay; type: cell-based
Glutamate receptor 2 [2] = molecular target: T2, Glutamate receptor 2 (Homo sapiens, UniProt P42262); assay: Displacement of [3H]-HBT1 from His-tagged GluA2-AMPA (unknown origin) receptor expressed in CHO cells in presence of glutamate by scintillation proximity assay; type: cell-based
T2 sequence (P42262 whole entry): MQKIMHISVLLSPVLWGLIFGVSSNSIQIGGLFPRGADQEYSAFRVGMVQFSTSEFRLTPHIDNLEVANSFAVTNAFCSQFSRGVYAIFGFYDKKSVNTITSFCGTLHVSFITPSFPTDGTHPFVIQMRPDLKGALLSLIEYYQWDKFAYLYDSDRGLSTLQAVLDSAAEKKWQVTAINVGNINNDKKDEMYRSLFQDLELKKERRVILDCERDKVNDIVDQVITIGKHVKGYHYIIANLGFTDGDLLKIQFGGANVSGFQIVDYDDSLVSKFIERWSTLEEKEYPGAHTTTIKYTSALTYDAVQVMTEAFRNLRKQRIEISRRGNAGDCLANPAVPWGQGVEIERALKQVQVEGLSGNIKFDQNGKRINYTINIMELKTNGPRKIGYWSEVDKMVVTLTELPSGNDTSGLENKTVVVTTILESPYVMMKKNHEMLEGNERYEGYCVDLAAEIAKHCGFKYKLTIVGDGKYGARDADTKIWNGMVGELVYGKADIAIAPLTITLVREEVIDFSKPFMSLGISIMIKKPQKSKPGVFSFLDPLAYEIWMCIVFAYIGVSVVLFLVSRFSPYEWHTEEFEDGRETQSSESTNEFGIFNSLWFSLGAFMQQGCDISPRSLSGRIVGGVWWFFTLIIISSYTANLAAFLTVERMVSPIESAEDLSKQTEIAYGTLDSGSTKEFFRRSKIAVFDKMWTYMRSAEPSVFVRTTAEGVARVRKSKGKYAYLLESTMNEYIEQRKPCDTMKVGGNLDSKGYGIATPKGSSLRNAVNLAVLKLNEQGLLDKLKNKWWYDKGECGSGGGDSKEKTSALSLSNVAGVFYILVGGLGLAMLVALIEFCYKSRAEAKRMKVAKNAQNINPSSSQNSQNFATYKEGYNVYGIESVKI

[3] = molecular target: T1, Glutamate NMDA receptor; GRIN1/GRIN2A; assay: Positive allosteric modulator activity at GluN1a/GluN2A (unknown origin) expressed in CHO cells assessed as maximum potentiation at 30 uM in presence of glutamate by Ca2+ influx assay relative to control; type: cell-based
[4] = 1-Octanol/aqueous buffer distribution coefficient, log D of the compound at pH 7.4 by HPLC analysis; type: physicochemical
[5] = Clearance in rat liver microsomes at 1 uM in presence of NADPH measured for 15 to 30 min by LC-MS/MS analysis; type: ADME, Microsome; details: time 15-30 min, read-out: CLH
[6] = Clearance in human liver microsomes at 1 uM in presence of NADPH measured for 15 to 30 min by LC-MS/MS analysis; type: ADME, Microsome; details: time 15-30 min, read-out: CLH
CHO = assay: Positive allosteric modulator activity at GluN1a/GluN2B (unknown origin) expressed in CHO cells at 30 uM in presence of glutamate by Ca2+ influx assay relative to control; type: cell-based; details: Homo sapiens
[7] = molecular target: Ionotropic glutamate receptor NMDA 1/2D (Homo sapiens, UniProt O15399+Q05586); assay: Positive allosteric modulator activity at GluN1a/GluN2D (unknown origin) expressed in CHO cells in presence of glutamate by Ca2+ influx assay; type: cell-based
[8] = Drug concentration in rat plasma at 3 mg/kg, po after 0.5 hrs by LC-MS/MS analysis; type: ADME, organism-based
[9] = Drug concentration in rat brain at 3 mg/kg, po after 0.5 hrs by LC-MS/MS analysis; type: ADME, organism-based; details: read-out: Ct
[10] = MRT in rat at 10 mg/kg, po by LC-MS/MS analysis; type: ADME, organism-based; details: in vivo
[11] = Volume of distribution at steady state in rat at 1 mg/kg, iv by LC-MS/MS analysis; type: ADME, organism-based; details: in vivo, read-out: Vdss
[12] = Drug concentration in rat plasma at 3 mg/kg, po after 2 hrs by LC-MS/MS analysis; type: ADME, organism-based
Homo sapiens [13] = organism: Homo sapiens; assay: Selectivity index, ratio of EC50 for GluN1a/GluN2B (unknown origin) expressed in CHO cells to EC50 for GluN1a/GluN2A (unknown origin) expressed in CHO cells; type: cell-based
[14] = Total clearance in rat at 1 mg/kg, iv by LC-MS/MS analysis; type: ADME, organism-based; details: in vivo
Rattus norvegicus = assay: Induction of LTP enhancement in Sprague-Dawley rat assessed as increase in LTP enhancement in hippocampal slices at 10 mg/kg, po; type: functional, organism-based
[15] = Ratio of drug concentration in brain to plasma at 3 mg/kg, po after 0.5 hr by LC-MS/MS analysis; type: ADME, organism-based; details: rat, brain and plasma, read-out: BPR
[16] = Drug concentration in rat brain at 3 mg/kg, po after 2 hrs by LC-MS/MS analysis; type: ADME, organism-based; details: read-out: Ct
[17] = Ratio of drug concentration in brain to plasma at 3 mg/kg, po after 1 hr by LC-MS/MS analysis; type: ADME, organism-based; details: rat, brain and plasma, read-out: BPR
Homo sapiens [18] = organism: Homo sapiens; assay: Selectivity index, ratio of EC50 for GluN1a/GluN2C (unknown origin) expressed in CHO cells to EC50 for GluN1a/GluN2A (unknown origin) expressed in CHO cells; type: cell-based
[19] = molecular target: Ionotropic glutamate receptor NMDA 1/2D (Homo sapiens) (UniProt Q05586+O15399); assay: Positive allosteric modulator activity at GluN1a/GluN2D (unknown origin) expressed in CHO cells at 30 uM in presence of glutamate by Ca2+ influx assay relative to control; type: cell-based; details: filed as positive allosteric modulator
[20] = molecular target: T3, Ionotropic glutamate receptor NMDA 1/2C (Homo sapiens, UniProt Q05586+Q14957); assay: Positive allosteric modulator activity at GluN1a/GluN2C (unknown origin) expressed in CHO cells at 30 uM in presence of glutamate by Ca2+ influx assay relative to control; type: cell-based; details: filed as positive allosteric modulator
[21] = Drug concentration in rat brain at 3 mg/kg, po after 1 hrs by LC-MS/MS analysis; type: ADME, organism-based; details: read-out: Ct
[22] = molecular target: T3, Ionotropic glutamate receptor NMDA 1/2C; assay: Positive allosteric modulator activity at GluN1a/GluN2C (unknown origin) expressed in CHO cells in presence of glutamate by Ca2+ influx assay; type: cell-based
[23] = Ratio of drug concentration in brain to plasma at 3 mg/kg, po after 2 hr by LC-MS/MS analysis; type: ADME, organism-based; details: rat, brain and plasma, read-out: BPR
[24] = Cmax in rat at 1 mg/kg, iv by LC-MS/MS analysis; type: ADME, organism-based; set-up: dose 1 mg/kg, route iv; details: in vivo
[25] = Oral bioavailability in rat at 10 mg/kg by LC-MS/MS analysis; type: ADME, organism-based; details: in vivo
Homo sapiens [26] = organism: Homo sapiens; assay: Selectivity index, ratio of EC50 for GluN1a/GluN2D (unknown origin) expressed in CHO cells to EC50 for GluN1a/GluN2A (unknown origin) expressed in CHO cells; type: cell-based
[27] = AUC in rat at 10 mg/kg, po by LC-MS/MS analysis; type: ADME, organism-based; set-up: dose 10 mg/kg, route po; details: in vivo
[28] = Drug concentration in rat plasma at 3 mg/kg, po after 1 hrs by LC-MS/MS analysis; type: ADME, organism-based
Glutamate receptor 2 [29] = molecular target: T2, Glutamate receptor 2; assay: Positive allosteric modulator activity at GluA2-AMPA receptor (unknown origin) assessed as maximum potentiation by FLIPR assay relative to control
[30] = molecular target: Glutamate receptor ionotropic, NMDA 2A (Homo sapiens) (UniProt Q12879); assay: Positive allosteric modulator activity at GluN2A receptor (unknown origin) assessed as maximum potentiation by FLIPR assay relative to control; details: filed as positive allosteric modulator
Glutamate receptor 2 [31] = molecular target: T2, Glutamate receptor 2; assay: Positive allosteric modulator activity at GluA2-AMPA receptor (unknown origin) by FLIPR assay
[32] = molecular target: Glutamate receptor ionotropic, NMDA 2A (Homo sapiens, UniProt Q05586+Q12879); assay: Positive allosteric modulator activity at GluN2A receptor (unknown origin) by FLIPR assay
Glutamate receptor 2 [33] = molecular target: T2, Glutamate receptor 2; assay: Displacement of [3H]-HBT1 from GluA2-AMPA receptor (unknown origin) in presence of glutamate by scintillation proximity assay
[34] = filed as positive allosteric modulator

CCc1cn(CCC#N)c(=O)c2sc(CN(CC)c3ccc(F)cc3)cc12
EC50 [1]: 4.4 µM | IC50 (Glutamate receptor 2 [2]): > 30 µM | %max [3, 34]: 410% | logD [4]: 3.34

Cc1cc(Cl)n(Cc2cc3c(=O)n(CCC#N)cc(C)n3n2)n1
microsomal CLint at 1 µM [5]: 10 µL/min/mg | IC50 (Glutamate receptor 2 [2]): > 30 µM | %max [3]: < 150% | microsomal CLint at 1 µM [6]: 8 µL/min/mg | logD [4]: 1.84

Cc1cn([C@H](C)CC#N)c(=O)c2cc(Cn3nc(C(F)F)cc3Cl)nn12
%max (CHO): < 150% | EC50 [7]: > 30 µM | concentration at 0.5 h [8]: 523 ng/mL | concentration at 0.5 h [9]: 307 ng/g | MRT [10]: 3.5 h | Vd [11]: 0.657 L/kg | concentration at 2 h [12]: 286 ng/mL | Ratio EC50 (Homo sapiens [13]): > 59 | clearance [14]: 3.92 mL/min/kg | EC50 [1]: 0.51 µM | Activity (Rattus norvegicus): Active | Kp at 0.5 h [15]: 0.59 | concentration at 2 h [16]: 146 ng/g | Kp at 1 h [17]: 0.47 | IC50 (Glutamate receptor 2 [2]): > 30 µM | Ratio EC50 (Homo sapiens [18]): 19 | %max [19]: 260% | %max [20]: 200% | concentration at 1 h [21]: 187 ng/g | EC50 [22]: > 30 µM | Kp at 2 h [23]: 0.51 | %max [3, 34]: 350% | Cmax [24]: 1910 ng/mL | microsomal CLint at 1 µM [6]: 33 µL/min/mg | logD [4]: 2.06 | bioavailability [25]: 21.4% | Ratio EC50 (Homo sapiens [26]): 19 | AUC [27]: 9140 ng·h/mL | concentration at 1 h [28]: 397 ng/mL

Cc1cn([C@@H](C)CC#N)c(=O)c2cc(Cn3nc(C(F)F)cc3Cl)nn12
IC50 (Glutamate receptor 2 [2]): > 30 µM | %max [3]: < 150% | logD [4]: 2.06

Cc1cn(CCC#N)c(=O)c2cc(Cn3nc(C(F)F)cc3Cl)nn12
EC50 [1]: 2 µM | IC50 (Glutamate receptor 2 [2]): > 30 µM | %max [3, 34]: 220% | logD [4]: 1.88

Cc1cn(CCC#N)c(=O)c2cc(Cn3nc(Cl)cc3Cl)nn12
microsomal CLint at 1 µM [5]: 13 µL/min/mg | EC50 [1]: > 30 µM | IC50 (Glutamate receptor 2 [2]): > 30 µM | %max [3]: < 150% | logD [4]: 2.07

CCN(Cc1cc2c(=O)n(CCC#N)cc(C)n2n1)c1ccc(F)cc1
microsomal CLint at 1 µM [5]: 91 µL/min/mg | EC50 [1]: 0.16 µM | IC50 (Glutamate receptor 2 [2]): 22 µM | %max [3, 34]: 420% | microsomal CLint at 1 µM [6]: 37 µL/min/mg | logD [4]: 2.83

CCN(Cc1cc2cc(C)n(CCC#N)c(=O)c2s1)c1ccc(F)cc1
EC50 [1]: 0.6 µM | IC50 (Glutamate receptor 2 [2]): 0.61 µM | %max [3, 34]: 440% | logD [4]: 2.95

CCN(Cc1cc2c(=O)n(CCC#N)ccc2s1)c1ccc(F)cc1
EC50 [1]: > 30 µM | IC50 (Glutamate receptor 2 [2]): 0.61 µM | %max [3, 34]: 320% | logD [4]: 2.92

CCN(Cc1cc2c(=O)n(CCC#N)ccn2n1)c1ccc(F)cc1
EC50 [1]: 5.2 µM | IC50 (Glutamate receptor 2 [2]): 22 µM | %max [3, 34]: 420% | logD [4]: 2.45

Cc1cn(CCC#N)c(=O)c2cc(Cn3nc(Br)cc3Cl)nn12
microsomal CLint at 1 µM [5]: 1 µL/min/mg | EC50 [1]: 1.5 µM | IC50 (Glutamate receptor 2 [2]): > 30 µM | %max [3, 34]: 160% | logD [4]: 2.16

Cc1cn(CCC#N)c(=O)c2cc(Cn3nc(C(F)(F)F)cc3Cl)nn12
microsomal CLint at 1 µM [5]: 7 µL/min/mg | IC50 (Glutamate receptor 2 [2]): 19 µM | %max [3, 34]: 420% | logD [4]: 2.32

CCN(Cc1cc2ccn(CC#N)c(=O)c2s1)c1ccc(F)cc1
EC50 [1]: > 30 µM | IC50 (Glutamate receptor 2 [2]): > 30 µM | %max [3, 34]: 230% | logD [4]: 2.63

CCN(Cc1cc2c(C)cn(CCC#N)c(=O)c2s1)c1ccc(F)cc1
EC50 [1]: 0.18 µM | IC50 (Glutamate receptor 2 [2]): > 30 µM | %max [3, 34]: 480% | logD [4]: 3.01

N#C[C@H]1C[C@H]1c1c(Cl)ccc2nc(Cn3nc(C(F)(F)F)cc3Cl)cc(=O)n12
%max (Glutamate receptor 2 [29]): 61% | %max [30]: 471% | EC50 (Glutamate receptor 2 [31]): > 30 µM | EC50 [32]: 0.039 µM | IC50 (Glutamate receptor 2 [33]): 0.38 µM

CCN(Cc1ccc(C(=O)N2CCC[C@@H]2C#N)s1)c1ccc(F)cc1
%max (Glutamate receptor 2 [29]; BLD = below limit of detection): Bld | %max [30]: 270% | EC50 (Glutamate receptor 2 [31]): > 30 µM | logD [4]: 2.06 | EC50 [32]: > 30 µM | IC50 (Glutamate receptor 2 [33]): 1.2 µM

CCN(Cc1cc2ccn(CCC#N)c(=O)c2s1)c1ccc(F)cc1
EC50 [1]: 2.3 µM | IC50 (Glutamate receptor 2 [2]): > 30 µM | %max [3, 34]: 450% | logD [4]: 2.68

N#C[C@H]1C[C@H]1c1c(C(F)(F)F)sc2nc(Cn3nc(C(F)(F)F)cc3Cl)cc(=O)n12
%max (Glutamate receptor 2 [29]; BLD = below limit of detection): Bld | %max [30]: 416% | EC50 (Glutamate receptor 2 [31]): 24 µM | EC50 [32]: 0.011 µM | IC50 (Glutamate receptor 2 [33]): 0.88 µM
